Test results published in patent publication US10668049B2, “Methods of treating cognitive decline with transforming growth factor beta inhibitors” (The Regents of the University of California, priority 2008, dated 2020).

System: neocortical slices
Assay: Field potential recordings of epileptiform activity in neocortical slices
Assay type: cell-based, rat
Procedure: Brain slices for the in vitro experiments were prepared by means of standard techniques (Ivens et al., 2007; Pavlovsky et al., 2003; Seiffert et al., 2004). Slices were transferred to a recording chamber where they were incubated in aCSF containing BSA (6.7 mg/ml), TGF-β1 (10 ng/ml) or artificial serum (aSerum, composition based on aCSF with the following changes, composition in mM: 0.8 MgSO4, 1.3 CaCl2, 5.7 KCl, 1 L-glutamine, 0.1 albumin). To block the activity of TGF-β1, slices were incubated in aCSF containing SB431542 (10 μM) before the addition of TGF-β1 (10 ng/ml). To block TGF-βRs, slices were incubated in aCSF containing SB431542 (10 μM) and TGF-βRII antibody (10 μg/ml) for 30 min followed by incubation in BSA in the presence of TGF-βR blockers. For detection of epileptiform activity, field potentials were recorded >4 h following incubation in cortical layer IV using extracellular glass microelectrodes (˜3 MΩ) in response to bipolar stimulation at the border of white and grey matter.
To assess the hypothesis that activation of the TGF-β signaling pathway is the mechanism underlying albumin-induced epileptogenesis, we activated this pathway directly by incubating neocortical slices with TGF-β1 (10 ng/mL) in artificial cerebrospinal fluid (aCSF) and performed electrophysiological recordings. These recordings were compared to those of slices treated with a solution containing serum levels of electrolytes and 0.1 mM albumin (aSERUM, previously shown to induce epileptogenesis; Ivens et al., 2007), albumin in aCSF, or aCSF (control). […] When albumin was added to the control aCSF solution, epileptiform activity was recorded in response to stimulation of the white matter (n=8 out of 12 slices, 6 animals). Importantly. TGF-β1 treatment was sufficient to recapitulate epileptiform activity similar to that seen following treatment with aSERUM and albumin in aCSF (n=5 out of 5 slices, 4 animals; n=7 out of 9 slices, 3 animals; and n=8 out of 12 slices, 6 animals, respectively). In all three cases, the evoked epileptiform activity, was all-or-none in nature, paroxysmal and prolonged, similar to that seen following BBB opening with bile salts (Ivens et al., 2007; Seiffert et al., 2004) and typical to that observed in acute models of epilepsy (Gutnick et al., 1982).
To further confirm that the TGF-β1 induced epileptiform activity was dependent on the TGF-βR mediated pathway, we performed additional trials of the above experiments in the presence of two TGF-βR blockers (SB431542, the TGF-βRI kinase activity inhibitor and TGF-βRII antibody).

For “albumin: bovine serum albumin, used to induce epileptogenesis”, the “integral of the field potential” value (inducer alone, without TGF-βR blockers) was 117.2±35.4 mV*ms and the “evoked epileptiform activity in response to stimulation of the white matter, slices showing it” value (slices incubated with the inducer) was 8 out of 12.
